Reference: patent US6368632B1, “Microencapsulated 3-piperidinyl-substituted 1,2-benzisoxazoles and 1,2-benzisothiazoles” (Janssen Pharmaceutica, priority 1993, dated 2002)

Columns and labels:
[1] = Solubility in the real time in vitro dissolution receiving medium; details: 50 mM tris buffer, 37 °C, pH 7.4, aqueous buffer
dopamine-D2 = dopamine-D2 (Homo sapiens, UniProt P14416); details: Janssen et al., J. Pharmacol. Exp. Ther. 244 (2):685-693 (1988); cited from earlier work
Chain of dopamine-D2 (P14416 whole entry): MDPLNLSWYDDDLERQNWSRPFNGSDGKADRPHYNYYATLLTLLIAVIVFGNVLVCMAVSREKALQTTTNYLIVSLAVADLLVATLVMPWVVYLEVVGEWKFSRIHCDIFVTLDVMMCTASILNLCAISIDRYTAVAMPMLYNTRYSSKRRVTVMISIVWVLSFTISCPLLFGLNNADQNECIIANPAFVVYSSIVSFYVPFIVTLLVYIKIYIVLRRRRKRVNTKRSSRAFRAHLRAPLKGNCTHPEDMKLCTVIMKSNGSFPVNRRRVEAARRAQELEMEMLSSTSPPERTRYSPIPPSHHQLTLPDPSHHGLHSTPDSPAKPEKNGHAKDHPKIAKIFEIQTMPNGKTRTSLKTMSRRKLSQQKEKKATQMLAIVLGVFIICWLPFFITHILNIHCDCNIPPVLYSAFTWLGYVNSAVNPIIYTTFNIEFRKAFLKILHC

Cc1nc2n(c(=O)c1CCN1CCC(c3noc4cc(F)ccc34)CC1)CCCC2 [Risperidone, 3-[2-[4-(6-fluoro-1,2-benzisoxazol-3-yl)-1-piperidinyl)ethyl]-6,7,8,9-tetrahydro-2-methyl-4H -pyrido[1,2-a]pyrimidin-4-one]
solubility [1]: ≥ 500 µg/mL
activity in tests related to dopamine-D2 antagonism (dopamine-D2): showed activity in all tests related to dopamine-D2 antagonism
